Data from US11751592B2, “Sweetness and taste improvement of steviol glycoside or mogroside sweeteners” (The Coca-Cola Company, priority 2016, dated 2023).

How the values were obtained:
[1] = tested on: panelists; assay: Taste evaluation of sweetness against sucrose solutions, Example 1 (compound 1 with Rebaudioside M); format: in vivo, human
Protocol: (§1) Ingredients were added to acidic water or acidic water with compound 1 while stirring until solids were visibly dissolved and the sample was poured into a glass bottle and stored at 4° C.
Taste tests were carried out with two panelists. Bottles were removed from the refrigerator and about 25 ml of beverage was poured into 4 oz-plastic cups. Panelists were given mineral water to rinse their mouth before tasting and between tasting different samples. Unsalted crackers were also given to panelists to eat followed by rinsing their mouth with mineral water before tasting the next sample.
First, two panelists assessed the sweetness of 5 ppm of compound 1 in acidic water against 1.5% sucrose solution in acidic water.
Sucrose solutions in Table 5, a sample of Rebaudioside M in acidic water and a sample of compound 1 and Rebaudioside M in acidic water were given to panelists. Panelists were asked to evaluate the sweetness of samples against 7%, 8%, 9%, and 10% sucrose solution and describe the differences in the taste profiles. Panelists were instructed to sip, evaluate the sweetness, and then spit the samples in cups provided for that purpose.

[2] = tested on: panelists; assay: Taste evaluation of sweetness against sucrose solutions, Example 2 (compound 1 with Mogroside V); format: in vivo, human; conditions: for sweetness, equally sweet to sucrose in acidic water: two panelists
Protocol: as §1
(§2) Taste tests were carried out with two panelists. Bottles were removed from the refrigerator and about 25 ml of beverage was poured into 4 oz-plastic cups. Panelists were given mineral water to rinse their mouth before tasting and between tasting different samples. Unsalted crackers were also given to panelists to eat followed by rinsing their mouth with mineral water before tasting the next sample. The sucrose solutions in Table 4, a sample of Mogroside V in acidic water and a sample of compound 1 and Mogroside V in acidic water were given to panelists. Panelists were asked to evaluate the sweetness of samples against 7%, 8%, 9%, and 10% sucrose solution and describe the difference of taste profile. Panelists were instructed to sip, evaluate the sweetness, and then spit the samples in cups provided for that purpose.

[3] = tested on: panelists; assay: Taste evaluation of sweetness against sucrose solutions, Example 3 (compound 1 with Rebaudioside A); format: in vivo, human; conditions: for sweetness, equally sweet to sucrose in acidic water: two panelists
Protocol: as §1
as §2, with “Rebaudioside A” for “Mogroside V”, “differences in the” for “difference of”, “profiles.” for “profile.”

[4] = Solubility in water during sample preparation; format: physicochemical; conditions: 2.5 mg in 500 g water, initially, before microwave, sonication and agitation
Protocol: The sample was treated with Microwave (1 min), Sonication (15 min), and agitation (30 min) repeatedly until the solution became visually clear. The solution was cooled at room temperature and citric acid was added.

[5] = 5 ppm compound 1 and 320 ppm Rebaudioside M in acidic water
[6] = 5 ppm compound 1 and 400 ppm Mogroside V in acidic water, both panelists
[7] = 5 ppm compound 1 and 400 ppm Rebaudioside A in acidic water

C=C1C[C@@]23CC[C@H]4[C@@](C)(CCC[C@@]4(C)C(=O)O[C@@H]4O[C@H](CO)[C@@H](O)[C@H](O[C@@H]5O[C@H](CO)[C@@H](O)[C@H](O)[C@H]5O)[C@H]4O[C@@H]4O[C@H](CO)[C@@H](O)[C@H](O)[C@H]4O)[C@@H]2CC[C@]1(O[C@@H]1O[C@H](CO)[C@@H](O)[C@H](O[C@@H]2O[C@H](CO)[C@@H](O)[C@H](O)[C@H]2O)[C@H]1O[C@@H]1O[C@H](CO)[C@@H](O)[C@H](O)[C@H]1O)C3 [Rebaudioside M, reference compound]
sweetness, equally sweet to sucrose in acidic water ([1]; 320 ppm Rebaudioside M in acidic water, without compound 1, two panelists): 8 % sucrose

CC(C)CC(=O)N1CCC[C@H](COc2cccc3c2C(N)=NS(=O)(=O)N3)C1 [compound 1, (S)-1-(3-(((4-amino-2,2-dioxido-1H-benzo[c][1,2,6]thiadiazin-5-yl)oxy)methyl)piperidin-1-yl)-3-methylbutan-1-one]
sweetness against sucrose solution in acidic water ([1]; 5 ppm compound 1 alone in acidic water, two panelists): < 1.5 % sucrose | taste profile: bitterness [1, 5]: no bitterness | taste profile: mouthfeel [1, 5]: more mouthfeel | sweetness, equally sweet to sucrose in acidic water ([1]; 5 ppm compound 1 and 320 ppm Rebaudioside M in acidic water, two panelists): 10 % sucrose | taste profile: mouthfeel ([2]; 5 ppm compound 1 and 400 ppm Mogroside V in acidic water, compared to the sample with just Mogroside V, one panelist): more mouthfeel | taste profile: bitterness [2, 6]: not bitter | taste profile: sweet linger [2, 6]: slight sweet linger | taste profile: sweetness onset [2, 6]: slower sweetness onset | sweetness, equally sweet to sucrose in acidic water ([2]; 5 ppm compound 1 and 400 ppm Mogroside V in acidic water): 10 % sucrose | taste profile: bitterness [3, 7]: more bitter | sweetness, equally sweet to sucrose in acidic water [3, 7]: 7 % sucrose | sweetness enhancement ([3]; 5 ppm compound 1 in acidic water containing 400 ppm Rebaudioside A): does not enhance the sweetness | solubility in water [4]: not completely soluble

C[C@H](CC[C@@H](O[C@@H]1O[C@H](CO[C@@H]2O[C@H](CO)[C@@H](O)[C@H](O)[C@H]2O)[C@@H](O)[C@H](O)[C@H]1O[C@@H]1O[C@H](CO)[C@@H](O)[C@H](O)[C@H]1O)C(C)(C)O)[C@H]1CC[C@@]2(C)[C@@H]3CC=C4[C@@H](CC[C@H](O[C@@H]5O[C@H](CO[C@@H]6O[C@H](CO)[C@@H](O)[C@H](O)[C@H]6O)[C@@H](O)[C@H](O)[C@H]5O)C4(C)C)[C@]3(C)[C@H](O)C[C@]12C [Mogroside V, reference compound]
sweetness, equally sweet to sucrose in acidic water ([2]; 400 ppm Mogroside V in acidic water, without compound 1): 7 % sucrose

C=C1C[C@@]23CC[C@H]4[C@@](C)(CCC[C@@]4(C)C(=O)O[C@@H]4O[C@H](CO)[C@@H](O)[C@H](O)[C@H]4O)[C@@H]2CC[C@]1(O[C@@H]1O[C@H](CO)[C@@H](O)[C@H](O[C@@H]2O[C@H](CO)[C@@H](O)[C@H](O)[C@H]2O)[C@H]1O[C@@H]1O[C@H](CO)[C@@H](O)[C@H](O)[C@H]1O)C3 [Rebaudioside A, reference compound]
sweetness, equally sweet to sucrose in acidic water ([3]; 400 ppm Rebaudioside A in acidic water, without compound 1): 7 % sucrose
